Reference: ChEMBL document CHEMBL1201862, “PubChem BioAssay data set” (2004)
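Briefly, cells in 96-well plates were exposed to five compound concentrations for 48 h, and endpoints were estimated by linear interpolation. GI50 is the concentration that inhibits growth by half.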 Active and inactive are the calls of the source. Cut-off read from the data, not from the text of the source: active = GI50 up to about 1.1 µM and inactive = higher.

Legend:
Assay in all cases: inhibition of tumour cell growth, NCI panel, 48 h
LOX IMVI = system: LOX IMVI
UO-31 = system: UO-31
HOP-92 = system: HOP-92
HT-29 = system: HT-29
Malme-3M = system: Malme-3M
KM12 = system: KM12
786-0 = system: 786-0
IGROV-1 = system: IGROV-1
CAKI-1 = system: CAKI-1
SNB-75 = system: SNB-75
NCI-H522 = system: NCI-H522
SF-539 = system: SF-539
UACC-62 = system: UACC-62
NCI-H226 = system: NCI-H226
OVCAR-3 = system: OVCAR-3
SR = system: SR
MOLT-4 = system: MOLT-4
NCI-H460 = system: NCI-H460
T47D = system: T47D
PC-3 = system: PC-3

SMILES	GI50 (LOX IMVI)	GI50 (UO-31)	GI50 (HOP-92)	GI50 (HT-29)	GI50 (Malme-3M)	GI50 (KM12)	GI50 (786-0)	GI50 (IGROV-1)	GI50 (CAKI-1)	GI50 (SNB-75)	GI50 (NCI-H522)	GI50 (SF-539)	GI50 (UACC-62)	GI50 (NCI-H226)	GI50 (OVCAR-3)	GI50 (SR)	GI50 (MOLT-4)	GI50 (NCI-H460)	GI50 (T47D)	GI50 (PC-3)
CCOC(=O)NC(Nc1ccc(C(=O)O)cc1)(C(F)(F)F)C(F)(F)F	> 100 µM (inactive)	> 100 µM (inactive)	> 100 µM (inactive)	> 100 µM (inactive)	> 100 µM (inactive)	> 100 µM (inactive)	> 100 µM (inactive)	> 100 µM (inactive)	> 100 µM (inactive)	> 100 µM (inactive)	> 100 µM (inactive)	> 100 µM (inactive)	> 100 µM (inactive)	> 100 µM (inactive)	> 100 µM (inactive)	> 100 µM (inactive)	> 100 µM (inactive)	> 100 µM (inactive)	> 100 µM (inactive)	> 100 µM (inactive)
COc1ccc2oc(S(=O)(=O)N3CC(CCl)c4ccc(N)cc43)cc2c1 (stereo not given)	0.0471 µM (active)	1.93 µM (inactive)	8.79 µM (inactive)	2.25 µM (inactive)	0.043 µM (active)	0.0228 µM (active)	0.0264 µM (active)	0.0445 µM (active)	0.0366 µM (active)	< 0.0215 µM (active)	0.0184 µM (active)	0.0244 µM (active)	0.0246 µM (active)	0.0412 µM (active)	0.0395 µM (active)	< 0.01 µM (active)	0.0652 µM (active)	0.0255 µM (active)	> 100 µM (inactive)	0.0299 µM (active)
NC(=O)c1c(NC=O)ncn1C1OCC(O)C(O)C1O (stereo not given)	> 100 µM (inactive)	> 100 µM (inactive)	> 100 µM (inactive)	> 100 µM (inactive)	> 100 µM (inactive)	> 100 µM (inactive)	> 100 µM (inactive)	> 100 µM (inactive)	> 100 µM (inactive)	> 100 µM (inactive)	> 100 µM (inactive)	> 100 µM (inactive)	> 100 µM (inactive)	> 100 µM (inactive)	> 100 µM (inactive)	> 100 µM (inactive)	> 100 µM (inactive)	> 100 µM (inactive)	> 100 µM (inactive)	> 100 µM (inactive)
CC(=O)NC(Cc1ccccc1)NC(=O)O (stereo not given)	> 100 µM (inactive)	> 100 µM (inactive)	> 100 µM (inactive)	> 100 µM (inactive)	> 100 µM (inactive)	> 100 µM (inactive)	> 100 µM (inactive)	> 100 µM (inactive)	> 100 µM (inactive)	> 100 µM (inactive)	> 100 µM (inactive)	> 100 µM (inactive)	> 100 µM (inactive)	> 100 µM (inactive)	> 100 µM (inactive)	> 100 µM (inactive)	> 100 µM (inactive)	> 100 µM (inactive)	> 100 µM (inactive)	> 100 µM (inactive)
